Data on ten compounds can be found in US7381537B2, “Use of inhibitors of glutaminyl cyclases for treatment and prevention of disease” (Probiodrug AG, priority 2003, dated 2008).

“Also recorded” adds a separate entry of the source. Like-named read-outs stand apart in the source and are kept apart here. Square brackets hold non-standard residues; d marks the D form. Ends that are not written are not given here. Peptide text beside a SMILES is read from it.

Series [1] has as its target T1, QC (Homo sapiens, UniProt Q16769). The series can be described thus: LC/MS-analysis of pyroglutamate formation by QC. In kind it is biochemical.
Series [2] concerns the target T1, QC. Description: Continuous spectrophotometric assay of QC substrate conversion (glutamate dehydrogenase coupled), human QC.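 Further: initial rates read in microplates at 30 °C, with enzyme activity quantified against an ammonia calibration curve recorded under the same assay conditions.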
Experimental: The initial velocities were evaluated and the enzymatic activity was determined from a standard curve of ammonia under assay conditions. All samples were measured at 30° C., using either the [sequence]luor Plus or the Sunrise (both from TECAN) reader for microplates. Kinetic data was evaluated using GraFit software.
How the values of series [3] were obtained:
H-Glu(OMe)-βNA and H-Glu-βNA. […] These fluorogenic substrates were analyzed fluorometrically, utilizing pyroglutamyl aminopeptidase as auxiliary enzyme.

Series [4] in a line: Solubility of substrates in aqueous solution.
Series [5] has as its target T2, purified DP IV (porcine kidney) (Sus scrofa, UniProt P22411).
T2 construct: purified DP IV (porcine kidney); from tissue; host or cells: porcine kidney
The series can be described thus: Cleavage of [Gln^3]Aβ1-11a by DP IV, MALDI-TOF. In kind it is biochemical. As for the experimental part:
(§1) Matrix-assisted laser desorption/ionization mass spectrometry was carried out using the Hewlett-Packard G2025 LD-TOF System with a linear time of flight analyzer. […] Samples (5 μl) were mixed with equal volumes of the matrix solution. For matrix solution we used DHAP/DAHC, prepared by solving 30 mg 2′,6′-dihydroxyacetophenone (Aldrich) and 44 mg diammonium hydrogen citrate (Fluka) in 1 ml acetonitrile/0.1% TFA in water (1/1, v/v). A small volume (=1 μl) of the matrix-analyte-mixture was transferred to a probe tip and immediately evaporated in a vacuum chamber (Hewlett-Packard G2024A sample prep accessory) to ensure rapid and homogeneous sample crystallization.

Another series concerns DP IV and QC. Description: Consecutive catalysis of DP IV and QC, crude porcine pituitary homogenate with added DPIV, MALDI-TOF. In kind it is biochemical. How it is done:
as §1

Series [6] concerns the target T1, QC. The series can be described thus: Inhibitor assay: Ki determination in the human QC catalyzed reaction. In kind it is biochemical. Further details: The cDNA of the mature QC starting with codon 38 was fused in frame with the plasmid encoded 6×histidine tag; 6xHis; made in house; host or cells: Pichia pastoris X33 (pPICZαB); also E. coli M15 (pQE-31). The note with it: text of example 7. The source says:
(§2) Excitation/emission wavelengths were 380/460 nm.

In series [7] the target is T1, QC. The series can be described thus: Fluorometric assay with pyroglutamyl aminopeptidase as auxiliary enzyme, human QC. In kind it is biochemical. Further details: The cDNA of the mature QC starting with codon 38 was fused in frame with the plasmid encoded 6×histidine tag; 6xHis; made in house; host or cells: Pichia pastoris X33 (pPICZαB); also E. coli M15 (pQE-31). The following applies: H-Gln-AMC as substrate.
From the text: Excitation/emission wavelengths were 320/410 nm.
as §2
H-Glu(OMe)-βNA and H-Glu-βNA.

Series [8] has as its target T1, QC. Description: Qualitative substrate conversion by MALDI-TOF mass spectrometry, human QC. In kind it is biochemical. Further details: The cDNA of the mature QC starting with codon 38 was fused in frame with the plasmid encoded 6×histidine tag; 6xHis; made in house; host or cells: Pichia pastoris X33 (pPICZαB); also E. coli M15 (pQE-31). How it is done:
Matrix-assisted laser desorption/ionization mass spectrometry was carried out using the Hewlett-Packard G2025 LD-TOF System with a linear time of flight analyzer. The instrument was equipped with a 337 nm nitrogen laser, a potential acceleration source (5 kV) and a 1.0 m flight tube. Detector operation was in the positive-ion mode and signals were recorded and filtered using LeCroy 9350M digital storage oscilloscope linked to a personal computer. Samples (5 μl) were mixed with equal volumes of the matrix solution. For matrix solution we used DHAP/DAHC, prepared by solving 30 mg 2′,6′-dihydroxyacetophenone (Aldrich) and 44 mg diammonium hydrogen citrate (Fluka) in 1 ml acetonitrile/0.1% TFA in water (1/1, v/v). […]
In order to further investigate the specificity and selectivity of the QCs, peptides were synthesized comprising either a modified N-terminal glutaminyl residue or a modified amino acid in the second position. […] Due to the cyclization of the glutaminyl residue or its analog, respectively, a mass difference of the substrate and the product of catalysis is detected. In cases of ammonia liberation of one mole per mole of substrate, the conversion was also analyzed quantitatively using the spectrophotometric assay.

The target in series [9] is T1, QC. Description: Reactivation of inactivated human QC with metal ions. The following applies: 0.5 mM metal ion in presence of 0.5 mM EDTA. More on the design: The cDNA of the mature QC starting with codon 38 was fused in frame with the plasmid encoded 6×histidine tag; 6xHis; made in house; host or cells: Pichia pastoris X33 (pPICZαB); also E. coli M15 (pQE-31). In kind it is biochemical. How it is done: Subsequently, the enzyme was subjected to dialysis against 50 mM Bis-Tris, pH 6.8, containing 1.0 mM EDTA. Reactivation of the enzymes was achieved by incubation of the inactivated enzyme sample with metal ions at a concentration of 0.5 mM, in presence of 0.5 mM EDTA in order to avoid an unspecific reactivation by traces of metal ions present in buffer solutions. Controls are given by enzyme samples that were not inactivated, but also dialyzed against EDTA solution as the inactivated enzyme (+EDTA) and enzyme samples that were dialyzed against buffer solutions without added EDTA (−EDTA).

Series [10] relates to Glutaminyl cyclase present in the homogenate of porcine pituitary. Description: Formation of [pGlu^3]Aβ3-11a by QC in porcine pituitary homogenate, MALDI-TOF. In kind it is biochemical. The note with it: 2 mM 1,10-phenanthroline. How it is done:
as §1
In case of Aβ3-21a, the assays contained 1% DMSO. At different times, samples were removed from the assay tube, peptides extracted using ZipTips (Millipore) according to the manufacturer's recommendations, mixed with matrix solution (1:1 v/v) and subsequently the mass spectra recorded.

A further series has as its system mammalian QC. The following applies: Busby et al. 1987; cited from earlier work.
The target in series [11] is T1, QC. The series can be described thus: Inhibition and inactivation of human QC by chelators. In kind it is biochemical. Further details: The cDNA of the mature QC starting with codon 38 was fused in frame with the plasmid encoded 6×histidine tag; 6xHis; made in house; host or cells: Pichia pastoris X33 (pPICZαB); also E. coli M15 (pQE-31).

By kcat/KM is commonly meant the second-order rate constant that governs catalysis at low substrate concentration.

T1 sequence (Q16769 29-361): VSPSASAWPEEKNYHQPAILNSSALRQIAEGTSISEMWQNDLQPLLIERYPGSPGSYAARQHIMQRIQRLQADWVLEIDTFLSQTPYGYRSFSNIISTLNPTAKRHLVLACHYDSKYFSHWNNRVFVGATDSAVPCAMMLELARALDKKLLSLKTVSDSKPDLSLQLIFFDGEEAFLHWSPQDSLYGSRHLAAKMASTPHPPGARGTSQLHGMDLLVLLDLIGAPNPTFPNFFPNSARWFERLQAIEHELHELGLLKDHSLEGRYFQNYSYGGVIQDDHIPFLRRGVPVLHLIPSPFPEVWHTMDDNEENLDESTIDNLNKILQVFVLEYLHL
T2 sequence (P22411 whole entry): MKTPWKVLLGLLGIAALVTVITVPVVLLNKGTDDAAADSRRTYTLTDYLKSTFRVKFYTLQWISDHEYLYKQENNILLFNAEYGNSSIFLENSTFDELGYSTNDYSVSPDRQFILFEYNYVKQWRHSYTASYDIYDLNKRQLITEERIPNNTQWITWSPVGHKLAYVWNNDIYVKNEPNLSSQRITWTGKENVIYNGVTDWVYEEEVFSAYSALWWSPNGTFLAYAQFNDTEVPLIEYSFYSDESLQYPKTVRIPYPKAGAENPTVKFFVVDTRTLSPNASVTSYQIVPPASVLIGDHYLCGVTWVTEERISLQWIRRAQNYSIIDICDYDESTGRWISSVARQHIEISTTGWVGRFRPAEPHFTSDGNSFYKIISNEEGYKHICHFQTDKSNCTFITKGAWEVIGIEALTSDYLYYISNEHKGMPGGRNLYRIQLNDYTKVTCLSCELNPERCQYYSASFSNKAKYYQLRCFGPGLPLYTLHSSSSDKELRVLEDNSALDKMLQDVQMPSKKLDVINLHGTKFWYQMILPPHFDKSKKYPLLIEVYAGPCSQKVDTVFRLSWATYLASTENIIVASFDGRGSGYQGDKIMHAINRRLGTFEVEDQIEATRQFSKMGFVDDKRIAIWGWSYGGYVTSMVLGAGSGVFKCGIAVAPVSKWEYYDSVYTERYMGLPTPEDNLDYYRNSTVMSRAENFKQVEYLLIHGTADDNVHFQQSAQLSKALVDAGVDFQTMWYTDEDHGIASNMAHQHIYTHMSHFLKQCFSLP

For the compound “[Gln^3]-glucagon(3-29): glucagon fragment 3-29 with N-terminal glutamine”, in the series with QC [1], the “formation of N-terminal pyroglutamate by QC” value is “catalyzed by QC”. In the series with QC [2] (in presence of 1% DMSO), the “second order rate constant” value came to 526000 M⁻¹ s⁻¹. Also, the kcat/KM in the series with QC [2] (recombinant human QC, buffer solution containing 1% DMSO) is 526000 ± 17000 M⁻¹ s⁻¹. Turning to `COC(=O)CC[C@H](N)C(=O)Nc1ccc2ccccc2c1` [H-Glu(OMe)-βNA, H-Glu(OMe)-β-naphthylamide], the “stability in Tris and Tricine buffers” value in [3] is reported as “remarkable instability”. QFRHDSGYE-NH2 [[Gln^3]Aβ3-11a]: in [4], the “solubility in aqueous solution” value was “better”. With `CC(C)[C@H](N)C(=O)N1CCCC1` [Val-Pyrr, Val-Pyrrolidide], the results for the “prevention of DP IV-catalysed cleavage of [Gln^3]Aβ1-11a” value in [5] and in series [5] (listed as Val-Pyrrolidide) were “completely prevented” and “prevention”, respectively. The “[pGlu^3]Aβ3-11a formation from [Gln^3]Aβ1-11a in presence of catalytically active DP IV and QC” value in the series on DP IV and QC is “not formed; also recorded: reduction”. As to `Cn1cnc(CCN)c1` [1-methyl-4-(β-aminoethyl)-imidazole], the “inhibition of human QC, in words” value against QC [6] is “complete loss of inhibitory activity”. Consider “[Gln^5]-substance P(5-11): substance P fragment 5-11 with N-terminal glutamine (QQFFGLM; ends and bridges not checked)”, for which, in the series with QC [1], the “formation of N-terminal pyroglutamate by QC” value is listed as “transformed by QC”. Turning to “H-Gln(NMe)-Phe-Lys-Ala-Glu-NH2 (H-[Gln(NMe)]FKAE-NH2; not fully specified; printed as H-Gln(NMe)-Phe-Lys-Ala-Glu-NH2)”, in the series with QC [7], the “inhibition of human QC by the peptide” value is on record as “not detected”. For the same compound, in the series with QC [8], the “substrate conversion (cyclization) by human QC” value was “No substrate conversion”. With `O=S(=O)([O-])[O-].[Zn+2]` [ZnSO4], the “restoration of QC activity after inactivation” value at QC [9] is listed as “Near-total restoration”.

`CC(C)C[C@H](NC(=O)[C@H](CCCNC(=N)N)NC(=O)[C@H](CCCCNC(=O)[C@@H](N)CCC(N)=O)NC(=O)[C@@H](N)CCC(N)=O)C(=O)N[C@@H](C)C(N)=O` [H-Gln-Lys(Gln)-Arg-Leu-Ala-NH2] (H-QK(Gln)RLA-NH2): the “substrate conversion (cyclization) by human QC” value at QC [8] was “converted”. With `c1cnc2c(c1)ccc1cccnc12` [1,10-phenanthroline], the “inhibition of formation of [pGlu^3]Aβ3-11a from [Gln^3]Aβ3-11a” value in series [10] is given as “inhibited; also recorded: inhibition”. Besides, the “inhibition of a mammalian QC” value in the series on mammalian QC was “Inhibition”. The “inhibition of human QC catalyzed substrate cyclization” value at QC [11] (competitive and time-dependent for the chelators) is “inhibited; also recorded: reduced enzymatic activity”. Besides, the “inactivation of human QC after extensive dialysis” value at QC [11] (dialysis against 5 mM) is “almost completely inactivated”. In addition, in the series with DP IV and QC, the “[pGlu^3]Aβ3-11a formation from [Gln^3]Aβ1-11a in presence of catalytically active DP IV and QC” value is on record as “not formed; also recorded: inhibition”.
